From ChEMBL document CHEMBL5385848, “Discovery of novel hydroxyamidine based indoleamine 2,3-dioxygenase 1 (IDO1) and thioredoxin reductase 1 (TrxR1) dual inhibitors” (Eur J Med Chem, 2023)
Activity calls are given as the source filed them. No cut-off for these calls is given here.

What was measured:
[1] = Toxicity in athymic BALB/c mouse xenografted with human HCT-116 cells assessed as change in lung morphology at 15 to 60 mg/kg, ig administered daily for 28 days and measured every 4 days; assay type: organism-based; conditions: in vivo, po, 672 h, dose 15-60 mg/kg, time 28 day
[2] = biological target: Indoleamine 2,3-dioxygenase 1 (Homo sapiens, UniProt P14902); assay: Inhibition of recombinant human IDO1 using L-Trp as substrate incubated for 1 hr
[3] = Toxicity in athymic BALB/c mouse xenografted with human HCT-116 cells assessed as change in spleen morphology at 15 to 60 mg/kg, ig administered daily for 28 days and measured every 4 days; assay type: organism-based; conditions: in vivo, po, 672 h, dose 15-60 mg/kg, time 28 day
IDO1 = assay: Selectivity ratio of IC50 for cytotoxicity against human HCT-116 cells to EC50 for inhibition of IDO1 in human HCT-116 cells; assay type: cell-based; conditions: read-out: Ratio IC50/EC50
[4] = biological target: T1, Indoleamine 2,3-dioxygenase 2 (Homo sapiens, UniProt Q6ZQW0); assay: Inhibition of IDO2 (unknown origin) using D-Trp as substrate incubated for 1 hr
T1 sequence (Q6ZQW0 whole entry): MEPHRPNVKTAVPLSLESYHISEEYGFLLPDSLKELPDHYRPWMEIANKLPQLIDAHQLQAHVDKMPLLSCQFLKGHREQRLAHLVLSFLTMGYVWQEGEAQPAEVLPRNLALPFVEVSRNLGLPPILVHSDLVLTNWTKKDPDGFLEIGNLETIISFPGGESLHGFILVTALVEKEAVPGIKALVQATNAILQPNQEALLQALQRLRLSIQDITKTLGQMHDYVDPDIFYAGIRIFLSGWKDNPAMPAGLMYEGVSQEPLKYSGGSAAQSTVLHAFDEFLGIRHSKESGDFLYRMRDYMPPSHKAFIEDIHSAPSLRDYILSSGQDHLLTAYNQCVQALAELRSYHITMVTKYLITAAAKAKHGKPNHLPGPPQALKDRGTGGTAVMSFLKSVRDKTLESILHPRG

HCT-116 [5] = assay: Cytotoxicity against human HCT-116 cells incubated for 24 hrs CCK-8 assay; assay type: functional, cell-based; conditions: HCT-116, 24 h
[6] = Cytotoxicity against mouse CT26 cells incubated for 48 hrs by CCK-8 assay; assay type: toxicity, cell-based
HCT-116 [7] = assay: Induction of apoptosis in human HCT-116 cells assessed as caspase-7 activation incubated for 24 hrs; assay type: functional, cell-based; conditions: dose 2.5-10 µM
[8] = biological target: Indoleamine 2,3-dioxygenase 1 (Mus musculus) (UniProt P28776); assay: In vivo inhibition of IDO1 in C57BL/6 mouse assessed as reduction in plasma Kyn/Trp ratio at 60 mg/kg, po administered once daily by LC-MS/MS analysis; assay type: functional, organism-based
Indoleamine 2,3-dioxygenase 1 (Mus musculus), sequence (P28776 whole entry, looked up): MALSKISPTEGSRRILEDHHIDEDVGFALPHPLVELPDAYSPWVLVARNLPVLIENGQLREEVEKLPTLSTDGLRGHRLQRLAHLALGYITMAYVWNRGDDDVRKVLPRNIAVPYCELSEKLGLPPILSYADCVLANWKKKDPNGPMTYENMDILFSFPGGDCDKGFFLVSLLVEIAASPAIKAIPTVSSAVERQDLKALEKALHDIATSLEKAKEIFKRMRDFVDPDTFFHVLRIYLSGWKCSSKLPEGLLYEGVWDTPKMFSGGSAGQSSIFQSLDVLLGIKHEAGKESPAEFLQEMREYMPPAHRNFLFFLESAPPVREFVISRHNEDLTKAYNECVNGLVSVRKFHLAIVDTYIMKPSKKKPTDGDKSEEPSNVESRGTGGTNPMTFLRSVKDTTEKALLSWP

Indoleamine 2,3-dioxygenase 1, sequence (P14902 whole entry): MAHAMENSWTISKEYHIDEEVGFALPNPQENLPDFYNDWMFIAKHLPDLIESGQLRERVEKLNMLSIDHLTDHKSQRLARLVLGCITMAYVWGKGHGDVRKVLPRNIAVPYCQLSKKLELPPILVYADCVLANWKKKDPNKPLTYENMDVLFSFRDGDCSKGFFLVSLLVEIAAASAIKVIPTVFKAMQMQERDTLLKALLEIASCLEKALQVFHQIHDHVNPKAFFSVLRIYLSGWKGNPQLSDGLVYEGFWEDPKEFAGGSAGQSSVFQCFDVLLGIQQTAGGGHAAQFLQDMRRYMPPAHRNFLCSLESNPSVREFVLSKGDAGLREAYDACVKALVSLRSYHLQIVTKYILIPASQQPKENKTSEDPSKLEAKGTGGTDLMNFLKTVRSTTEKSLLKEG

In the case of `O=C(Cc1ccc(O)cc1)Nc1nnc(CCCNc2nonc2/C(=N\O)Nc2ccc(F)c(Br)c2)s1`, the Activity [1] is reported as “Non-Toxic”, the IC50 [2] is reported as 0.05 µM and the Activity [3] is reported as “Non-Toxic”. It also gave a selectivity ratio (IDO1) of 101, an IC50 [4] of 22.2 µM and an IC50 (HCT-116 [5]) of 3.33 µM. The IC50 at 48 h [6] was 12.4 µM, the Activity (HCT-116 [7]) was “Dose-Dependent Effect” and the Activity [8] was “Active”.
